Key:
L6 skeletal muscle cells = test: Glucose uptake experiments in L6 skeletal muscle cells (2-deoxy-[3H]glucose); type: cell-based
Description: Glucose uptake experiments were conducted as described by Roblet 2013. L6 skeletal muscle cells were grown in an a-minimum essential medium (a-MEM) containing 2% (v/v) fetal bovine serum (GBS) in an atmosphere of 5% CO2 at 37° C. [Tremblay 2001]. Cells were plated at 600,000 cells/plate in 24-well plates to obtain about 25,000 cells/mL. The cells were incubated 7 days, to reach their complete differentiation to myotubes (7 days post-plating). L6 myotubes were deprived of GBS for 3 h, with a a-MEM containing 0% of GBS. Then, the cells were incubated for 75 minutes, with 10 μl of EDUF fractions at a concentration of 1 μg/mL and 1 ng/ml. Finally, insulin was added (10 μl at 1.10-5M) for 45 min. Experiments were repeated 9 times, and each repetition was run in triplicate. After experimental treatments, cells were rinsed once with 37° C. HEPES-buffered solution (20 mM HEPES, pH 7.4, 140 mM NaCl, 5 mM KCl, 2.5 mM MgSO4, and 1 mM CaCl2)) and were subsequently incubated in HEPES-buffered solution containing 10 µM 2-deoxyglucose and 0.3 μCi/mL 2-deoxy-[3H] glucose for 8 minutes. Then, the cells were rinsed three times with 0.9% NaCl solution at 4° C. and then frozen. The next day, the cells were disrupted by adding 500 μl of a 50 mM NaOH solution. The radioactivity was determined by scintillation.

FAO rat hepatocytes = test: Hepatic glucose production experiments in FAO cells; type: cell-based
Description: Hepatic glucose production experiments were conducted as described by Chevrier et al, (2015). Briefly, FAO rat hepatocytes were grown and maintained in monolayer culture in Roswell Park Memorial Institute medium (RPMI) containing 10% FBS in an atmosphere of 5% CO2 at 37° C. Cells were plated at 4.10^6 cells/plate. […] […] Glucose production was measured in the medium by using the Amplex Red Glucose/Glucose Oxidase Assay kit (Invitrogen). Results shown are the mean response of at least 6 independent experiments realized in triplicate.

Substance | glucose uptake, dose-response effect (L6 skeletal muscle cells; IPVE at 1 ng/ml) | glucose uptake, dose-response effect (L6 skeletal muscle cells; IPVE at 10 ng/ml) | Bioactivity (L6 skeletal muscle cells; Table 1, identified peptides, glucose uptake) | nature of the glucose uptake response (L6 skeletal muscle cells; concentrations from 1 μg/mL to 10 μg/mL as printed) | glucose uptake, dose-response effect (L6 skeletal muscle cells; highest concentrations tested (>10 ng/ml)) | enhancement of the glucose uptake (L6 skeletal muscle cells; in the presence of insulin, compared to the insulin control (P=0.016)) | glucose uptake, dose-response effect (L6 skeletal muscle cells; lowest concentrations tested (<100 μg/mL)) | Bioactivity (FAO rat hepatocytes; Table 1, identified peptides, hepatic glucose production) | decrease in HGP (hepatic glucose production) (FAO rat hepatocytes; basal condition) | decrease of the HGP (hepatic glucose production) (FAO rat hepatocytes; insulin condition: peptide incubated with insulin at 0.1 nm, compared to insulin at 0.1 nm)
IPVE: synthetic peptide of amino acid sequence IPVE, identified from salmon protein hydrolysate; increases glucose uptake | increase the bioactivity | increase the bioactivity | Increases glucose uptake | dose-dependent | no effect on the glucose uptake | 17% | no effect on the glucose uptake | – | – | –
VAPEEHPTL | – | – | – | – | – | – | – | Decreases hepatic glucose production | 20% | 18%

From patent US20260209288A1, “PEPTIDES FOR REGULATING GLUCOSE” (Cooke Aquaculture Inc., priority 2019, published 2026)
